# Source: ChEMBL document CHEMBL1201862, “PubChem BioAssay data set” (2004)
# Activity calls are given as the source filed them.
# Columns and labels:
# [1] = molecular target: Palmitoyl-protein thioesterase ABHD10, mitochondrial (Mus musculus, UniProt Q6PE15); experiment: Late stage assay provider results from the probe development effort to identify inhibitors of PME-1: fluorescence-based dose response biochemical gel-based competitive Activity-Based Protein Profiling (ABPP) inhibition of ABHD10 Set 2.; assay type: functional
# Chain of Palmitoyl-protein thioesterase ABHD10, mitochondrial (Q6PE15 whole entry, the tested form may be a part): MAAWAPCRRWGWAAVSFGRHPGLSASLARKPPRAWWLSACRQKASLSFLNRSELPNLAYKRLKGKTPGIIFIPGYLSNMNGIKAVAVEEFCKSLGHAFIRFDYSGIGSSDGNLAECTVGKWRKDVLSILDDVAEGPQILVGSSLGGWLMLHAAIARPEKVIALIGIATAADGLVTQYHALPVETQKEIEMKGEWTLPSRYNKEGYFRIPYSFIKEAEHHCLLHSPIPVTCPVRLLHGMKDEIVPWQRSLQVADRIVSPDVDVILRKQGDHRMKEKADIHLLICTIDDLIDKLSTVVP
# Fatty acid synthase [2] = molecular target: T1, Fatty acid synthase (Homo sapiens, UniProt P49327); experiment: FAS thioesterase domain inhibitors, dose response, biochemical, endpoint fluorescence intensity, uHTS hits (AID 624327); assay type: functional;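 further: fluorescence from hydrolysis of an O-methyl fluorescein acyl ester substrate by the enzyme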
# T1 sequence (P49327 whole entry, the tested form may be a part): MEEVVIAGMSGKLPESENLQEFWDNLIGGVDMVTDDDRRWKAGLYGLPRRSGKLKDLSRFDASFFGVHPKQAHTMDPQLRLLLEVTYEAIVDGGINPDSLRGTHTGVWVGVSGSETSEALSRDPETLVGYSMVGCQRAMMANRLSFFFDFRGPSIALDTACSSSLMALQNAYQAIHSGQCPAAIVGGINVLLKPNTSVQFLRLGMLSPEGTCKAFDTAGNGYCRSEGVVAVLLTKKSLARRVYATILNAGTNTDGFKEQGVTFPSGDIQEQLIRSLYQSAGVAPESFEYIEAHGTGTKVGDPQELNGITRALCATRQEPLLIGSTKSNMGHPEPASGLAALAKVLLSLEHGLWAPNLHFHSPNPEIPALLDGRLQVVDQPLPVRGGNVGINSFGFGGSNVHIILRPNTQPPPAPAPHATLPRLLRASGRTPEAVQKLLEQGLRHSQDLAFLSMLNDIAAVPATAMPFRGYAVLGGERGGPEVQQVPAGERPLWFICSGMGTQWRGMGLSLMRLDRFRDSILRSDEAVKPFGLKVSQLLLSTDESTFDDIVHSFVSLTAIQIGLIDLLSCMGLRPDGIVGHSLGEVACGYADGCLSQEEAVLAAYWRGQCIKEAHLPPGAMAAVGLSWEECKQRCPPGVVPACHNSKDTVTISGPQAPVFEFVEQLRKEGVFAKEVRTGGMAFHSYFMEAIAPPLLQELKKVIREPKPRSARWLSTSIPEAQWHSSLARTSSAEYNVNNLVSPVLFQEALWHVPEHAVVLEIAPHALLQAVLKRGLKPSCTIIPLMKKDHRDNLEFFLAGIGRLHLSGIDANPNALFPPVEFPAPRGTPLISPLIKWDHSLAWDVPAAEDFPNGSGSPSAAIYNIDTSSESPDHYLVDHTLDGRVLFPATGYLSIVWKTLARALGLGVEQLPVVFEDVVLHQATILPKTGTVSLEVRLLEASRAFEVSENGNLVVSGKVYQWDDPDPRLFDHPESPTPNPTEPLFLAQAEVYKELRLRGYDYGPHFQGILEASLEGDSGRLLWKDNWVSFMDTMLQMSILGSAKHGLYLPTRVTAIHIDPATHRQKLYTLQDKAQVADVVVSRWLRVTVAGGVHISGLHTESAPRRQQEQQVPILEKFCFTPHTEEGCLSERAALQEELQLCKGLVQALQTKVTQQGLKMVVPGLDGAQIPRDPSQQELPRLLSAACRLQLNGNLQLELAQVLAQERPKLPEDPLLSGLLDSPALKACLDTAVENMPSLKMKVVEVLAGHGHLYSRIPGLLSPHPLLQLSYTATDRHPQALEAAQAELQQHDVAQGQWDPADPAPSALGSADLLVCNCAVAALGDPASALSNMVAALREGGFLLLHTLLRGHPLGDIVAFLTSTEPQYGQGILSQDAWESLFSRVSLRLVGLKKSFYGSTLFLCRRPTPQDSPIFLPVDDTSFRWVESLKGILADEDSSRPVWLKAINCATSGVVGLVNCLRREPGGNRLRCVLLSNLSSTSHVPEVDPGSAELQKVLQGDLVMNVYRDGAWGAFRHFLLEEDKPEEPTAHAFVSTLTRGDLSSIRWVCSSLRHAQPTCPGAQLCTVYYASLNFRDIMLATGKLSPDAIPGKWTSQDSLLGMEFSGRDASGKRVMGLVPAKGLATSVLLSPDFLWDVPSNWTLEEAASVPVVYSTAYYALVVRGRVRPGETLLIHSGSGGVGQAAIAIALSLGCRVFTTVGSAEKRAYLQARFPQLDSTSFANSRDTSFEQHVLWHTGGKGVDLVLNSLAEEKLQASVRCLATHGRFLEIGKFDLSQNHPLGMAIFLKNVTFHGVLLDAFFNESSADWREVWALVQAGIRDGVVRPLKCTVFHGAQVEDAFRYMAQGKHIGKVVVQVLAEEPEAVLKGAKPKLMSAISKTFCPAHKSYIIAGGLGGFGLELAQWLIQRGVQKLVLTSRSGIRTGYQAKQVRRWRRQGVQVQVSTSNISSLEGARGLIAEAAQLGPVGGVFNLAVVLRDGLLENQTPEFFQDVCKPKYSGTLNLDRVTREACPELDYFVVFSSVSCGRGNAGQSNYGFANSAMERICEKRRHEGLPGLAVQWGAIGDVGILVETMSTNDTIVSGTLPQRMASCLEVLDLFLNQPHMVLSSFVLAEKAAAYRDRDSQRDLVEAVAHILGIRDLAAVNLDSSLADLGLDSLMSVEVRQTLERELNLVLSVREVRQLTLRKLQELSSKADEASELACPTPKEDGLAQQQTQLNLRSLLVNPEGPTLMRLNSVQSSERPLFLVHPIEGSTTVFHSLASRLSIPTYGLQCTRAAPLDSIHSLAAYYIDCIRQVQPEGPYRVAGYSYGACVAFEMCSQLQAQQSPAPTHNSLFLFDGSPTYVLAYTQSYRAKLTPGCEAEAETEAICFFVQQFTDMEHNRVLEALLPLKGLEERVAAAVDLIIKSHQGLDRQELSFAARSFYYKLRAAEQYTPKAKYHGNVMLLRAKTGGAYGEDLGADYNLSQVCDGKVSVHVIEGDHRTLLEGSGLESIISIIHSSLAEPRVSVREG
# Fatty acid synthase [3] = molecular target: T1, Fatty acid synthase; experiment: FAS thioesterase domain inhibitors, dose response, biochemical, kinetic fluorescence intensity (AID 624326); assay type: functional;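 further: rate of fluorescence rise from hydrolysis of a fluorogenic O-methyl fluorescein ester substrate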
# [4] = CRF-BP/CRF-R2 complex antagonists, dose response, cell-based, uHTS hits, 384-well (AID 651639); assay type: functional, Homo sapiens; details: read-out: IC50_Mean
# [5] = molecular target: T2, Corticotropin-releasing factor receptor 2/Corticotropin-releasing factor-binding protein (Homo sapiens, UniProt P24387+Q13324); experiment: activators of CRF receptor 2 with binding protein – uHTS hits, confirmation (AID 602473); assay type: functional; details: read-out: EC50_Mean
# T2 sequence (Q13324 whole entry): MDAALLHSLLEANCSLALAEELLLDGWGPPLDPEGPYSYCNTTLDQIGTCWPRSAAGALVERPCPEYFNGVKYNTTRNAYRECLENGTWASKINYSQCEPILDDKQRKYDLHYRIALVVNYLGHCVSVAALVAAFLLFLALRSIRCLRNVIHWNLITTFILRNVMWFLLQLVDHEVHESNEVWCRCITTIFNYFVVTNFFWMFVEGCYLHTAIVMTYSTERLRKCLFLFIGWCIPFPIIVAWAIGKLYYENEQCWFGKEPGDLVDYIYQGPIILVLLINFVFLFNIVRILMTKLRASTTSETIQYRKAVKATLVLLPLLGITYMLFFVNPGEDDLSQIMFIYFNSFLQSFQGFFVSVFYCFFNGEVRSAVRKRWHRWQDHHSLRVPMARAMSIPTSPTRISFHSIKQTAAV
# T2 sequence (P24387 whole entry): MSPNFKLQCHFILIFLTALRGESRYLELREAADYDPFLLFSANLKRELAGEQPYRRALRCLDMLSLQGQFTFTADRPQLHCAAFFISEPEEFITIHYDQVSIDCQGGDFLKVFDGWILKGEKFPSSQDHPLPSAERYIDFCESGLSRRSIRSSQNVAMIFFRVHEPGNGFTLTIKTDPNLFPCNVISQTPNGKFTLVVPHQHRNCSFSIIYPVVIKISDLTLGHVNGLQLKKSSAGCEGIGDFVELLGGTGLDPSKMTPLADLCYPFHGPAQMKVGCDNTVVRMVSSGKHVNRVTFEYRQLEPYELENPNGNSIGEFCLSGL
# [6] = molecular target: T2, Corticotropin-releasing factor receptor 2/Corticotropin-releasing factor-binding protein; experiment: Dose Response confirmation of uHTS hits for small molecule antagonists of the CRF-binding protein and CRF-R2 receptor complex.; assay type: functional; details: read-out: IC50_Mean
# Melanocortin receptor 4 [7] = molecular target: T3, Melanocortin receptor 4 (Homo sapiens, UniProt P32245); experiment: MC4R antagonist potency on cAMP, dose response, cell-based, TR-FRET, biased antagonists (AID 602298); assay type: functional;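 further: antagonist potency against agonist-stimulated cAMP production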
# T3 sequence (P32245 whole entry): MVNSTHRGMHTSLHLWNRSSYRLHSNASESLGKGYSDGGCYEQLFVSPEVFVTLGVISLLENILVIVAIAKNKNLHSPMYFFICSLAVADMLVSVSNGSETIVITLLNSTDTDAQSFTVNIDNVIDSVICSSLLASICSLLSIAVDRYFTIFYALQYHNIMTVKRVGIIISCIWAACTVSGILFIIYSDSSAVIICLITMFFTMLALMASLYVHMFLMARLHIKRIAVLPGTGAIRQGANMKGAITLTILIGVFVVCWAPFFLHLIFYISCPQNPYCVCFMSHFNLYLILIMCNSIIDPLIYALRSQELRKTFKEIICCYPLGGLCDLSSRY
# [8] = nonselective inhibitors of cellular cAMP signaling, dose response, counter-screen for MC4R biased antagonist project, cell-based, TR-FRET cAMP detection (AID 602305); assay type: functional;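 further: U2OS cells stimulated with forskolin near its EC80 as the cAMP inducer; potency is for inhibition of forskolin-stimulated cAMP signaling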
# Melanocortin receptor 4 [9] = molecular target: T3, Melanocortin receptor 4; assay type: functional, cell-based
# [10] = HepG2 cell cytotoxicity, dose response, cytotoxicity control for Shn3 inhibitor project, CellTiter-Glo, cherry-picked (AID 624134); assay type: functional, cell-based
# [11] = molecular target: Hepatocyte nuclear factor 4-alpha (Homo sapiens, UniProt P41235); assay type: functional, cell-based;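 further: biochemical luminescence-based dose-response counterscreen measuring inhibition of HNF4 dimerization, run alongside a screen for blockers of ABHD5–perilipin-5 interaction; split luciferase complementation of HNF4 fusion proteins in cell lysate measuring dimerization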
# Chain of Hepatocyte nuclear factor 4-alpha (P41235 whole entry, the tested form may be a part): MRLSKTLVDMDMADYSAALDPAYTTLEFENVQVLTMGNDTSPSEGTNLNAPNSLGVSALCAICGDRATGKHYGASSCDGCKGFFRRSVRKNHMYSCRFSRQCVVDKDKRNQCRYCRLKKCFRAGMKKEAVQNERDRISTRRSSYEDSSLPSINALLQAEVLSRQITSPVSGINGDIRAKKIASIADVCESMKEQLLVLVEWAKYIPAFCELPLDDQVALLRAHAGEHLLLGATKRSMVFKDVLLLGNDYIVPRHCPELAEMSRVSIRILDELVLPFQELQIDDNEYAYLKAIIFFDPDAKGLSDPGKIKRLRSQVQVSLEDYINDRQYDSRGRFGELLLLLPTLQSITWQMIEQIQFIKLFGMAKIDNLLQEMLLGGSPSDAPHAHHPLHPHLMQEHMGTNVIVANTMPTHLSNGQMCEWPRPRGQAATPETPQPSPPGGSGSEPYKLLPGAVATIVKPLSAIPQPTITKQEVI
# [12] = Shn3 3'UTR reporter inhibitors, dose response, cell-based, Clone20 osteoblasts, firefly luciferase, cherry-picked (AID 624132); assay type: functional;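 further: firefly luciferase luminescence from reporter carrying the Shn3 3'UTR in osteoblasts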
# [13] = control 3'UTR Renilla luciferase suppression, dose response, counter-screen for Shn3 inhibitor project, cell-based, Clone20-Shn3RL, cherry-picked (AID 624133); assay type: functional
# Beta Lactamase = Beta Lactamase (Pseudomonas aeruginosa, UniProt Q932Y6); experiment: beta-lactamase reporter inhibitor potency, dose response, artefact control for NOD2-RIPK2 interaction inhibitor project, BLA reporter cells, FRET fluorescence (AID 651552); assay type: functional, cell-based
# Chain of Beta Lactamase (Q932Y6 whole entry): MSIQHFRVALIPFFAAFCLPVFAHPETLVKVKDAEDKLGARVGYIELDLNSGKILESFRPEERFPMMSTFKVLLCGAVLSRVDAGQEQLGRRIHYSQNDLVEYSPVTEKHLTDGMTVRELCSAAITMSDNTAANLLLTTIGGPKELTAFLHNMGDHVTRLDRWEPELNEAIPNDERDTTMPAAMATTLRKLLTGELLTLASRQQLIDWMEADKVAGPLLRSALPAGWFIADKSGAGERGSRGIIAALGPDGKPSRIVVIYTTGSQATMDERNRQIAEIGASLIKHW
# [14] = molecular target: Mitochondrial peptide methionine sulfoxide reductase (Bos taurus, UniProt P54149); experiment: Absorbance-based biochemical high throughput dose response assay for activators of Methionine sulfoxide reductase A (MsrA).; assay type: functional
# Chain of Mitochondrial peptide methionine sulfoxide reductase (P54149 whole entry): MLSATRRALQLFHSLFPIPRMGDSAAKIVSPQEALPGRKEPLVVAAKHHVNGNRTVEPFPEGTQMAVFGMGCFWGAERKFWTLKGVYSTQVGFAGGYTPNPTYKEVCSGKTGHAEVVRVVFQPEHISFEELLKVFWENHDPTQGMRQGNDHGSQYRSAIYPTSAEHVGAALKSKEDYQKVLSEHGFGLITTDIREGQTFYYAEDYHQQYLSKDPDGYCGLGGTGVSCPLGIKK
# [15] = molecular target: Tyrosyl-DNA phosphodiesterase 2 (Homo sapiens, UniProt O95551); experiment: human TDP2 enzyme inhibitors, dose response, biochemical, epi absorbance, IC50 (AID 743297)
# Chain of Tyrosyl-DNA phosphodiesterase 2 (O95551 whole entry, the tested form may be a part): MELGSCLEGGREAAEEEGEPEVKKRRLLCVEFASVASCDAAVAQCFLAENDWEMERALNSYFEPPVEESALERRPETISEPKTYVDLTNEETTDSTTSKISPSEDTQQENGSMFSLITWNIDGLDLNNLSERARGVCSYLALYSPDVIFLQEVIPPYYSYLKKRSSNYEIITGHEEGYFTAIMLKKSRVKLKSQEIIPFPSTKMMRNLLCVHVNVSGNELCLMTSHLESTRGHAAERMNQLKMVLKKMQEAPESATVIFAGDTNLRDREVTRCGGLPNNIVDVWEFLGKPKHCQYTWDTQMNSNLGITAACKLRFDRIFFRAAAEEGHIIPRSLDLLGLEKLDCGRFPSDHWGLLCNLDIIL
# [16] = Fluorescence-based cell-based high throughput dose response assay for inhibitors of the interaction of nucleotide-binding oligomerization domain containing 2 (NOD2) and the receptor-interacting serine-threonine kinase 2 (RIPK2).; assay type: functional; details: Homo sapiens
# Beta-lactamase [17] = molecular target: Beta-lactamase (Salmonella choleraesuis (strain SC-B67), UniProt Q5J463)
# Chain of Beta-lactamase (Salmonella choleraesuis (strain SC-B67), UniProt Q5J463) (Q5J463 whole entry): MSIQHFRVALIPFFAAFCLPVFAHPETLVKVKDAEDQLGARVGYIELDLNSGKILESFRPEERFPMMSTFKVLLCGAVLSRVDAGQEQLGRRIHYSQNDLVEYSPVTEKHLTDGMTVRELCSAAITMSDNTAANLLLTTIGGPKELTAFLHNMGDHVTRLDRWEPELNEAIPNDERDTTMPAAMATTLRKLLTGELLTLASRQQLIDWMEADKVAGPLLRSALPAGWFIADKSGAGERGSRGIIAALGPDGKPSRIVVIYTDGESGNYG
# Insulin-degrading enzyme [18] = molecular target: T4, Insulin-degrading enzyme (Homo sapiens, UniProt P14735); experiment: activators of recombinant IDE enzyme, dose response, counter-screen for IDE activator project, biochemical, fluorescence polarization (AID 588681)
# T4 sequence (P14735 whole entry): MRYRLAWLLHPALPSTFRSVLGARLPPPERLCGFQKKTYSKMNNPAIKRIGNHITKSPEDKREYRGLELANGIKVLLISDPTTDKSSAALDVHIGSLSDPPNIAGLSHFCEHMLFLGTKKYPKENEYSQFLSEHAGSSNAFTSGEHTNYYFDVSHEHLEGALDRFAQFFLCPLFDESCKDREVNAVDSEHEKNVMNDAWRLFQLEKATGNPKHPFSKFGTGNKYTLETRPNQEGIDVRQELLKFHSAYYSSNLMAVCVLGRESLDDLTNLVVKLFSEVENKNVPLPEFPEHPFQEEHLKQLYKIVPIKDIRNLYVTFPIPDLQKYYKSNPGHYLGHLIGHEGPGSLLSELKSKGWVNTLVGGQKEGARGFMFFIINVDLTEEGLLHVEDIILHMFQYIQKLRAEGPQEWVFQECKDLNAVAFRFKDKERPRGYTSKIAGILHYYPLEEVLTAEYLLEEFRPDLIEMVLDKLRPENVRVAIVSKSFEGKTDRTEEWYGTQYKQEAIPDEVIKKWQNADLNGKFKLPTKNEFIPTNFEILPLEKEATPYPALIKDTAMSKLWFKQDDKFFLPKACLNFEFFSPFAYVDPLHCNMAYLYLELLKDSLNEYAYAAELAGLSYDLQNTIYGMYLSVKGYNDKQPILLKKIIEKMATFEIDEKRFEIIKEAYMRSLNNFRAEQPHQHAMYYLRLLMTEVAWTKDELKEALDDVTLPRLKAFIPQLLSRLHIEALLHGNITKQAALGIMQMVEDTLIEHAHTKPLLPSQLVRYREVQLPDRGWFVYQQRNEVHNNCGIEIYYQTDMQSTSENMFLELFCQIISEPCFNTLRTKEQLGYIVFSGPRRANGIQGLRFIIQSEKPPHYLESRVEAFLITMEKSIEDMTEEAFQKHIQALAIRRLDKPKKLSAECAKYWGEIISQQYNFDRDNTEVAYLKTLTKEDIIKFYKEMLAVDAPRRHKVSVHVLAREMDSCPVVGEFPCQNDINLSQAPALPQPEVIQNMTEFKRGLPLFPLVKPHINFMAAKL
# HEK293 [19] = experiment: optical interference in Abeta FP readout, dose response, artefact control for IDE activator project, biochemical, fluorescence polarization (AID 588442); assay type: functional, cell-based; details: Homo sapiens
# HEK293 [20] = experiment: HEK cell cytotoxicity by LDH release, dose response, cytotoxicity control for IDE activator project, fluorescence, HEK cells (AID 588440); assay type: functional, cell-based; details: Homo sapiens;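 further: cytotoxicity by LDH release measuring loss of membrane integrity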
# Insulin-degrading enzyme [21] = molecular target: T4, Insulin-degrading enzyme; experiment: activators of endogenous IDE in HEK cells, dose response, cell-based, fluorescence polarization (AID 588439); assay type: functional
# Beta-lactamase [22] = molecular target: Beta-lactamase (Pseudomonas aeruginosa, UniProt Q79MP6);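 further: biochemical dose-response test of metallo-beta-lactamase enzyme inhibition, read out by epi-absorbance; purified recombinant IMP-1 metallo-beta-lactamase with nitrocefin as substrate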
# Chain of Beta-lactamase (Pseudomonas aeruginosa, UniProt Q79MP6) (Q79MP6 whole entry): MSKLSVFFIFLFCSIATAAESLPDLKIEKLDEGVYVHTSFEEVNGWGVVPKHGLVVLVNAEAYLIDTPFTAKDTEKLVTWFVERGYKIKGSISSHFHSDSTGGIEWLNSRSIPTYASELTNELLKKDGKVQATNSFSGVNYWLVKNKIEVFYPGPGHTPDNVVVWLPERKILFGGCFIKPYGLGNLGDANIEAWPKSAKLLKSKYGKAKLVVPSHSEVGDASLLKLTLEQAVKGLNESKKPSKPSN
compound,measurement,setting,value
CC[C@@]1(c2cccc(C)c2)C(=O)N(C(=O)OC)N1C(=O)OC,IC50,[1],0.413 µM (active)
same,IC50,Fatty acid synthase [2],6.22 µM (active)
same,IC50,Fatty acid synthase [3],5.96 µM (active)
CCOc1cc(-c2cn(S(=O)(=O)c3cccc4nsnc34)nc2N)cc(OCC)c1OCC,IC50,[4],> 20 µM (inactive)
same,EC50,[5],> 53 µM (inactive)
same,IC50,[6],21.1 µM (active)
CC(O)CC(=O)OC[C@]12CC[C@H]3[C@@](C)(CC[C@H]4C(C)(C)CCC[C@]34C)[C@@H]1CC(C1=CC(=O)OC1O)O2 (stereo partly drawn),IC50,Melanocortin receptor 4 [7],22 µM (inactive)
same,IC50,[8],> 64.6 µM (inactive)
same,EC50,Melanocortin receptor 4 [9],> 89.2 µM (inactive)
same,AC50,[10],22.1 µM (active)
same,IC50,[11],3.53 µM (active)
same,AC50,[12],3.75 µM (active)
same,AC50,[13],5.5 µM (active)
CC1OC2CC(=O)OC2C2=C1C(=O)c1c(O)cccc1C2=O (stereo not drawn),IC50,Beta Lactamase,38.2 µM (inactive)
same,EC50,[14],21 µM (inactive)
same,IC50,[15],12 µM (inactive)
same,IC50,[16],2.14 µM (active)
N#CC(C#N)=C1C=C2C=C(N3CCCCCC3)CCC2CC1 (stereo not drawn),IC50,Beta-lactamase [17],1.04 µM (active)
same,EC50,Insulin-degrading enzyme [18],> 54.7 µM (inactive)
same,EC50,HEK293 [19],> 54.7 µM (inactive)
same,IC50,HEK293 [20],> 89.1 µM (inactive)
same,EC50,Insulin-degrading enzyme [21],> 54.7 µM (inactive)
same,IC50,Beta-lactamase [22],2.78 µM (active)
